molecular target: T1, Dual specificity protein phosphatase 1 (Homo sapiens, UniProt P28562); assay: concentration-response of DUSP1 blockers – biochemical, in vitro, confirmation, dose response (AID 551); settings: pH 7; 22 °C
T1 sequence (P28562 whole entry): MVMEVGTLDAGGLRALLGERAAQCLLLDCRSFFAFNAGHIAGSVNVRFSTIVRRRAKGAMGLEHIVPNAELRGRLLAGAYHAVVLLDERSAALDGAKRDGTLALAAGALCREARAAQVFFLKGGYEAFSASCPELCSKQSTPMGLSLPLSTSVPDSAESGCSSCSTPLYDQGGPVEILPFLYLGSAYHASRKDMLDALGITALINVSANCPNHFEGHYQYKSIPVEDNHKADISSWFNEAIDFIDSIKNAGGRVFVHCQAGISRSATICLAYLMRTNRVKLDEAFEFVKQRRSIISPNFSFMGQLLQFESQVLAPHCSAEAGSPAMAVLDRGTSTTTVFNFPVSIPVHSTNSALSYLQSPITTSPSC

IC50 [µM] | SMILES
> 50 | c1ccc(SCc2nc(-c3ccncc3)no2)cc1 [4-{5-[(phenylthio)methyl]-1,2,4-oxadiazol-3-yl}pyridine]
> 50 | O=C(NC1CC1)c1c[nH]c2ccc(S(=O)(=O)Nc3cccc(C(F)(F)F)c3)cc2c1=O [MLS000046685]
> 50 | CCOC(=O)c1ccc(Nc2c3[nH]cccc-3c(=O)n2Cc2ccc(F)cc2)cc1 [ethyl 4-[[6-[(4-fluorophenyl)methyl]-5-oxo-7H-pyrrolo[3,4-b]pyridin-7-yl]amino]benzoate]
> 50 | CCOc1ccc2nc(Nc3nc4c(c(=O)[nH]3)CCC4)nc(C)c2c1 [2-[(6-ethoxy-4-methylquinazolin-2-yl)amino]-1,5,6,7-tetrahydrocyclopenta[d]pyrimidin-4-one]
